Measurements taken from US20250034164A1, “NOVEL COMPOUND AND COMPOSITION FOR PREVENTING OR TREATING NEUROINFLAMMATORY BRAIN DISEASES COMPRISING SAME AS ACTIVE INGREDIENT” (KOREA INSTITUTE OF OCEAN SCIENCE & TECHNOLOGY, priority 2021, published 2025).

What was measured:
[1] = test system: nitric oxide (NO) produced in mouse BV-2 microglia cells stimulated with LPS; test: NO production inhibition in LPS-stimulated BV-2 microglia cells (Griess reagent); assay type: cell-based; conditions: LPS 200 ng/ml; for IC50: mouse BV-2 microglia cells, 24 h, read-out: NO inhibitory activity (IC50 value)
Description: (§1) BV-2 microglia cells were cultured in a humidified 5% CO2 incubator at 37° C. using a Dulbecco's modified Eagle medium supplemented with 5% fetal bovine serum and 1% penicillin/streptomycin at 100 units/mL.
In all experiments, the number of cells was 2.5×10^5 cell/ml, the cells were first treated with each of Compounds of Examples 1 to 25 by concentration (2.5 to 200 μg/ml), and LPS was diluted in medium and used at a concentration of 200 ng/ml. A cytotoxicity test was performed using MTT assay, and the MTT assay was performed by performing NO assay and injecting 30 μl of MTT at a concentration of 0.5 mg/ml into the cells in a microplate. After reacting for 2 hours in the incubator, formazan crystals were dissolved in 100 μl of DMSO, and the absorbance was measured using a Vmax microplate reader (Tencan Co., Switzerland) with a wavelength of 540 nm. In order to quantitatively measure the production of nitric oxide (NO), mouse BV-2 microglia cells were prepared in a microplate (96 well), and added with LPS (200 ng/ml) and Compounds by concentration (2.5 to 200 μg/ml). The cells reacted in an incubator for 24 h, and 50 μl of the supernatant reacted with a Griess reagent (a mixed solution of 1% sulfanilamide, 0.1% N-(1-naphthyl)-ethylenediamine dihydrochloride, and 2.5% H3PO4), and then the absorbance was measured using a Vmax 96-well microplate spectrophotometer with a wavelength of 550 nm.
In order to analyze the anti-inflammatory efficacy of Compound of Example 1, the concentration inhibitory effect of nitric oxide (NO) produced in mouse BV-2 microglia cells stimulated with LPS (200 ng/ml), a neuroinflammatory factor, was confirmed.
The neuroinflammation inhibitory effects of Compounds of Examples 2 to 25 were confirmed.
In order to analyze the anti-inflammatory efficacy of Compound 26 of Chemical Formula 2, the concentration inhibitory effect of nitric oxide (NO) produced in mouse BV-2 microglia cells stimulated with LPS (200 ng/ml), a neuroinflammatory factor, was confirmed. Compound 26 of Chemical Formula 2 was purchased from Santa Cruz biotechnology (CAS 79127-35-8) and the experiment was performed. As a result of treating Compound of Chemical Formula 2 at […], it was confirmed that the amount of nitric oxide (NO) was reduced, as shown in FIG. 37A.

[2] = test system: inducible nitric oxide synthase (iNOS); test: iNOS protein and gene expression in LPS-treated BV-2 cells (Western blot, RT-PCR); assay type: cell-based, mouse; conditions: LPS 200 ng/ml, 2 to 80 μg/ml, protein 18 hours, gene 6 hours
Description: as §1
(§2) After culturing for 18 hours, the proteins were identified, and the expression patterns of iNOS and COX-2 proteins were confirmed by performing Western blot using polyclonal antibodies to iNOS and COX-2. For 6 hours after culturing the BV-2 cells by setting the same conditions, the cell supernatant was removed, RNA was identified from the cells, and iNOS and COX-2 genes were analyzed by RT-PCR. As a result, as shown in FIGS. 30(c), 35(c), and 36(c), it could be confirmed that natural product Compound 1 and derivative Compounds 4 and 6 decreased the expression levels of iNOS and COX-2 proteins and genes in a concentration-dependent manner.

[3] = test system: cyclooxygenase type 2 (COX-2); test: COX-2 protein and gene expression in LPS-treated BV-2 cells (Western blot, RT-PCR); assay type: cell-based, mouse; conditions: LPS 200 ng/ml, 2 to 80 μg/ml, protein 18 hours, gene 6 hours
Description: as §1, §2

TNF-α = TNF-α gene expression in LPS-stimulated BV-2 microglia cells (RT-PCR); assay type: cell-based, mouse; conditions: BV-2 cells, pretreated 1 hour at 2 to 80 μg/ml, LPS 200 ng/ml, 6 hours
Description: as §1
(§3) Then, the cells were stimulated with LPS (200 ng/ml). After 6 hours, the cell supernatant was removed, RNA was identified from the cells, and TNF-α, IL1-β, and IL-6 genes were analyzed by RT-PCR. As a result, as shown in FIGS. 30(d), 35(d), and 36(d), it could be confirmed that natural product compound 1 and derivative compounds 4 and 6 decreased the expression levels of TNF-α, IL1-β, and IL-6 genes in a concentration-dependent manner.

IL1-β = IL1-β gene expression in LPS-stimulated BV-2 microglia cells (RT-PCR); assay type: cell-based, mouse; conditions: BV-2 cells, pretreated 1 hour at 2 to 80 μg/ml, LPS 200 ng/ml, 6 hours
Description: as §1, §3

IL-6 = IL-6 gene expression in LPS-stimulated BV-2 microglia cells (RT-PCR); assay type: cell-based, mouse; conditions: BV-2 cells, pretreated 1 hour at 2 to 80 μg/ml, LPS 200 ng/ml, 6 hours
Description: as §1, §3

| IC50 [1] [µM] | SMILES | expression levels of iNOS proteins and genes [2] | expression levels of COX-2 proteins and genes [3] | expression levels of TNF-α gene (TNF-α) | expression levels of IL1-β gene (IL1-β) | expression levels of IL-6 gene (IL-6) | amount of nitric oxide (NO) ([1]; BV-2 cells, treated at 20 to 60 μM (FIG. 30A)) |
| --- | --- | --- | --- | --- | --- | --- | --- |
| 4.5 | O=CC1=C[C@H]2[C@@H]3C=C[C@H]2C(=O)O[C@@H]3O1 [Compound 6, (1S,4aS,5R,7aS)-8-oxo-1,4a,5,7a-tetrahydro-1,5-(epoxymethano)cyclopenta[c]pyran-3-carbaldehyde] | decreased | decreased | decreased | decreased | decreased | – |
| 13.3 | O=C(OCC1=C[C@H]2[C@@H]3C=C[C@H]2C(=O)O[C@@H]3O1)c1ccc(Br)cc1 [Compound 4, ((1S,4aS,5R,7aS)-8-oxo-1,4a,5,7a-tetrahydro-1,5-(epoxymethano)cyclopenta[c]pyran-3-yl)methyl 4-bromobenzoate] | decreased | decreased | decreased | decreased | decreased | – |
| 46.6 | O=C1O[C@@H]2OC(CO)=C[C@H]3[C@@H]2C=C[C@@H]13 [Compound 1, (1S,4aS,5R,7aS)-3-(hydroxymethyl)-1,4a,5,7a-tetrahydro-1,5-(epoxymethano)cyclopenta[c]pyran-8-one] | decreased | decreased | decreased | decreased | decreased | reduced |
